Data as given in patent US5741671A, “Isolation cloning and expression of transmembrane water channel aquaporin 1(AQP1)” (The Johns Hopkins University, priority 1995, dated 1998).
Entries after “also recorded” stand apart in the source; their conditions may differ.

How the values were obtained:
AQP5 = biological target: T1, AQP5 (Rattus norvegicus, UniProt P47864); test: Xenopus oocyte swelling assay, AQP5 (salivary) cRNA-injected oocytes (Example 11); type: cell-based
T1 construct: the entire open reading frame of the salivary cDNA; expressed in transfected cells; host or cells: Xenopus oocytes injected with cRNA from expression construct pXβG
Protocol: Functional Expression in Oocytes-A 1-kb BamHI fragment containing the 5'untranslated sequence and the entire open reading frame of the salivary cDNA was blunt-end-ligated into the BglII site of the Xenopus expression construct pXβG, which contains the HindIII-Pst insert of pSP64T in pBS II KS (Preston et al., 1992, Science, 256:385-387). Capped cRNA was synthesized in vitro after digestion with Xbal (Preston et al., 1993). Defolliculated stage V-VI Xenopus oocytes were injected with 50 nl of water or up to 5 ng of sample cRNAs and incubated for 3 days at 18° C. in 200 mosM modified Barth's buffer. The oocytes were transferred to 70 mosM modified Barth's buffer at 21° C.; oocyte swelling was monitored by videomicroscopy, and the coefficient of osmotic water permeability (Pf) was determined (Preston et al., 1992, 1993). Uptake of [^14 C]urea or [^14 C]glycerol was measured by incubating oocytes in 200 mosM Barth's buffer for 10-20 min at 21° C. followed by washing and SDS solubilization. No increase in ion conductance was found when control oocytes were compared to RNA-injected oocytes by two electrode voltage clamps (Preston et al., 1992). […]

AQP1 = biological target: T2, AQP1 (Homo sapiens, UniProt P29972); test: Xenopus oocyte swelling assay, AQP1 cRNA-injected oocytes (Example 11); type: cell-based; design: expressed in transfected cells; host or cells: Xenopus oocytes injected with AQP1 cRNA
T2 sequence (P29972 1-269): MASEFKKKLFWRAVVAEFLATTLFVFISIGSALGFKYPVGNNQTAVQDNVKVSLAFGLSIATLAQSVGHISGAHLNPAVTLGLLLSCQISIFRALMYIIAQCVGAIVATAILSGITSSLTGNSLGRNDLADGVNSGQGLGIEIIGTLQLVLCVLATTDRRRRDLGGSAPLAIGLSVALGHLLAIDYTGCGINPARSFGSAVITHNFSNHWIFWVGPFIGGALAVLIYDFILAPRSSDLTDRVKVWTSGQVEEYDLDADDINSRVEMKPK

[1] = 5 mM β-mercaptoethanol 30 min after 1 mM HgCl2

T1 sequence (P47864 whole entry): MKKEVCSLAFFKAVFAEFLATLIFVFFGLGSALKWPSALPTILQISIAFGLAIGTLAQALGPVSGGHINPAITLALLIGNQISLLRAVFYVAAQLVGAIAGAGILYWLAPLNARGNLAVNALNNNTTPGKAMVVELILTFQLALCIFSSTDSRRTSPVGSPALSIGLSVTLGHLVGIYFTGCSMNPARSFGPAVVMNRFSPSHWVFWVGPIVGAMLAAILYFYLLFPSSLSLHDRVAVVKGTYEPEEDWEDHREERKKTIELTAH

Row | restoration of Pf of AQP5-expressing oocytes after HgCl2 (AQP5; [1]) | restoration of Pf of AQP1-expressing oocytes after HgCl2 (AQP1; [1]) | SMILES | inhibition of Pf of AQP5-expressing oocytes (AQP5; 1 mM HgCl2, 5 min) | inhibition of the increase in Pf mediated by AQP1 (AQP1; 1 mM HgCl2, 5 min)
1 | restored | restored | OCCS [β-mercaptoethanol] | – | –
2 | – | – | [Cl][Hg][Cl] [HgCl2] | comparable reduction; also recorded: reversibly inhibited | blocked
